Experimental data as given in patent US20260124222A1, “ISOTHIAZOLYLCARBOXAMIDE COMPOUNDS AND THEIR USE IN THERAPY” (HOTSPOT THERAPEUTICS, INC., priority 2022, published 2026).

Target: T1, Avi-tagged FL MALT-1 (Homo sapiens, UniProt Q9UDY8)
T1 construct: Avi-tagged FL MALT-1 (Pharmaron, stored at −70° C.); Avi-tag; purchased Pharmaron
T1 sequence (Q9UDY8 1-824): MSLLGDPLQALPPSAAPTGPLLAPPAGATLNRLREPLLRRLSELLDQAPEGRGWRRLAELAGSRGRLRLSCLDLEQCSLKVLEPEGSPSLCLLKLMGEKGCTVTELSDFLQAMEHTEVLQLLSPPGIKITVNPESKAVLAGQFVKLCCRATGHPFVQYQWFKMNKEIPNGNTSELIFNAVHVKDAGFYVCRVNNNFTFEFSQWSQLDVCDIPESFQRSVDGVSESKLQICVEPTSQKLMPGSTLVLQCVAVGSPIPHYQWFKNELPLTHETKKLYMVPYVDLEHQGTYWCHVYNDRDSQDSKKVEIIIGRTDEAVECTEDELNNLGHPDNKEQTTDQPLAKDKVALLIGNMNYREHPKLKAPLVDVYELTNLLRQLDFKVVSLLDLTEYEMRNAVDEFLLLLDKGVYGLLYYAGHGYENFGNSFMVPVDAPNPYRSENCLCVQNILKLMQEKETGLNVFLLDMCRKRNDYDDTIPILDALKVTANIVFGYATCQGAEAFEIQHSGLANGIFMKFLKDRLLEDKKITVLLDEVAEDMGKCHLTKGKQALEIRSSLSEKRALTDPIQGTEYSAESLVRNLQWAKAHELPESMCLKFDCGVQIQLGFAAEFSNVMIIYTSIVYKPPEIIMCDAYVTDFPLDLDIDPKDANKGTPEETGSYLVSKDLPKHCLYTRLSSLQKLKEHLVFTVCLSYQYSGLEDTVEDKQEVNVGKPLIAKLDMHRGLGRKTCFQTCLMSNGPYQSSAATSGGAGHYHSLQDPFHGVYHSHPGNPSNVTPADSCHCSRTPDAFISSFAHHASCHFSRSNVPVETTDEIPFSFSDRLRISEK
Assay: MALT-1 Fluorogenic Peptide Cleavage Assay (MALT1 inhibition assay)
Assay type: biochemical
Details: Ac-LRSR-AMC peptide substrate; 30 min pre-incubation, 90 min reaction at room temperature; fluorescence
Summary of the method: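 Full-length Avi-tagged enzyme preincubated 30 min at room temperature with compound (2% DMSO final) in HEPES pH 6.89 buffer with sodium citrate, TCEP, EDTA and CHAPS. Ac-LRSR-AMC substrate added at Km or 10×Km (working stocks 50 or […] μM); fluorescence (ex 342/em 441 nm) after 90 min; IC50 from sigmoidal fit.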

SMILES | IC50
Cc1noc(C)c1-c1nsc(C(=O)Nc2ccnc(C(F)(F)F)c2)c1C1CC1 [I-197, 4-cyclopropyl-3-(3,5-dimethylisoxazol-4-yl)-N-(2-(trifluoromethyl)pyridin-4-yl)isothiazole-5-carboxamide] | ≤ 400 nM
O=C(Nc1ccc(C(=O)N2CC(O)C2)c(Cl)c1)c1snc(-c2cccc3c(=O)[nH]ccc23)c1C1CC1 [I-198, N-(3-chloro-4-(3-hydroxyazetidine-1-carbonyl)phenyl)-4-cyclopropyl-3-(1-oxo-1,2-dihydroisoquinolin-5-yl)isothiazole-5-carboxamide] | ≤ 400 nM
Cc1cc(NC(=O)c2snc(-c3cccc4ncccc34)c2C2CC2)ccn1 [I-199, 4-cyclopropyl-N-(2-methylpyridin-4-yl)-3-(quinolin-5-yl)isothiazole-5-carboxamide] | ≤ 400 nM
Cc1cc(NC(=O)c2snc(-c3cccc4c(=O)[nH]ccc34)c2C2CC2)ccn1 [I-200, 4-cyclopropyl-N-(2-methylpyridin-4-yl)-3-(1-oxo-1,2-dihydroisoquinolin-5-yl)isothiazole-5-carboxamide] | ≤ 400 nM
Cc1cc(NC(=O)c2snc([C@@H]3CCOC3)c2C2CC2)ccn1 [I-201, (S)-4-cyclopropyl-N-(2-methylpyridin-4-yl)-3-(tetrahydrofuran-3-yl)isothiazole-5-carboxamide] | > 2500 nM
Cc1cc(NC(=O)c2snc([C@H]3CCOC3)c2C2CC2)ccn1 [I-202, 4-cyclopropyl-N-(2-methylpyridin-4-yl)-3-[(3R)-oxolan-3-yl]-1,2-thiazole-5-carboxamide] | > 2500 nM
Cn1cc2c(-c3nsc(C(=O)Nc4ccc(C(=O)N5CC(O)C5)c(Cl)c4)c3C3CC3)cccc2n1 [I-203, N-(3-chloro-4-(3-hydroxyazetidine-1-carbonyl)phenyl)-4-cyclopropyl-3-(2-methyl-2H-indazol-4-yl)isothiazole-5-carboxamide] | 400 to 1000 nM
O=C(Nc1ccnc(C(F)(F)F)c1)c1snc([C@@H]2CCOC2)c1C1CC1 [I-204, (S)-4-cyclopropyl-3-(tetrahydrofuran-3-yl)-N-(2-(trifluoromethyl)pyridin-4-yl)isothiazole-5-carboxamide] | > 2500 nM
O=C(Nc1ccnc(C(F)(F)F)c1)c1snc([C@H]2CCOC2)c1C1CC1 [I-205, (R)-4-cyclopropyl-3-(tetrahydrofuran-3-yl)-N-(2-(trifluoromethyl)pyridin-4-yl)isothiazole-5-carboxamide] | 1000 to 2500 nM
Cn1cc2c(-c3nsc(C(=O)Nc4cnc(-n5nccn5)c(C#N)c4)c3C3CC3)cccc2n1 [I-206, N-(5-cyano-6-(2H-1,2,3-triazol-2-yl)pyridin-3-yl)-4-cyclopropyl-3-(2-methyl-2H-indazol-4-yl)isothiazole-5-carboxamide] | ≤ 400 nM
Cn1nc2cccc(-c3nsc(C(=O)Nc4ccnc(C(F)(F)F)c4)c3C3CC3)c2n1 [I-207, 4-cyclopropyl-3-(2-methyl-2H-benzo[d][1,2,3]triazol-4-yl)-N-(2-(trifluoromethyl)pyridin-4-yl)isothiazole-5-carboxamide] | ≤ 400 nM
Cn1cc2cccc(-c3nsc(C(=O)Nc4ccnc(C(F)(F)F)c4)c3C3CC3)c2n1 [I-208, 4-cyclopropyl-3-(2-methyl-2H-indazol-7-yl)-N-(2-(trifluoromethyl)pyridin-4-yl)isothiazole-5-carboxamide] | 400 to 1000 nM
Cn1cc2c(-c3nsc(C(=O)Nc4cc(C(F)(F)F)ccn4)c3C3CC3)cccc2n1 [I-209, 4-cyclopropyl-3-(2-methylindazol-4-yl)-N-[4-(trifluoromethyl)pyridine-2-yl]-1,2-thiazole-5-carboxamide] | > 2500 nM
O=C(Nc1ccnc(C(F)(F)F)c1)c1snc(-c2cccn3nccc23)c1C1CC1 [I-210, 4-cyclopropyl-3-(pyrazolo[1,5-a]pyridine-4-yl)-N-(2-(trifluoromethyl)pyridine-4-yl)isothiazole-5-carboxamide] | ≤ 400 nM
Cc1cc(NC(=O)c2snc(-c3cccn4nccc34)c2C2CC2)ccn1 [I-211, 4-cyclopropyl-N-(2-methylpyridin-4-yl)-3-(pyrazolo[1,5-a]pyridine-4-yl)isothiazole-5-carboxamide] | ≤ 400 nM
O=C(Nc1cnc(C(=O)N2CC(O)C2)c(Cl)c1)c1snc(-c2cccn3nccc23)c1C1CC1 [I-212, N-(5-chloro-6-(3-hydroxyazetidine-1-carbonyl)pyridin-3-yl)-4-cyclopropyl-3-(pyrazolo[1,5-a]pyridin-4-yl)isothiazole-5-carboxamide] | ≤ 400 nM
